{"source": "patent US10647680B2", "about": "“Urea compound, preparation method therefor and medical use thereof” (Ancureall Pharmaceutical (Shanghai) Co., Ltd., priority 2016, dated 2020)", "key": {"CYP1A2": {"target": "T1, CYP1A2 (Homo sapiens, UniProt P05177)", "T1 construct": "human liver microsomes (BD Gentest) (0.5 mg/mL); tissue BD Gentest; host or cells: human liver microsomes", "T1 sequence (P05177 1-516)": "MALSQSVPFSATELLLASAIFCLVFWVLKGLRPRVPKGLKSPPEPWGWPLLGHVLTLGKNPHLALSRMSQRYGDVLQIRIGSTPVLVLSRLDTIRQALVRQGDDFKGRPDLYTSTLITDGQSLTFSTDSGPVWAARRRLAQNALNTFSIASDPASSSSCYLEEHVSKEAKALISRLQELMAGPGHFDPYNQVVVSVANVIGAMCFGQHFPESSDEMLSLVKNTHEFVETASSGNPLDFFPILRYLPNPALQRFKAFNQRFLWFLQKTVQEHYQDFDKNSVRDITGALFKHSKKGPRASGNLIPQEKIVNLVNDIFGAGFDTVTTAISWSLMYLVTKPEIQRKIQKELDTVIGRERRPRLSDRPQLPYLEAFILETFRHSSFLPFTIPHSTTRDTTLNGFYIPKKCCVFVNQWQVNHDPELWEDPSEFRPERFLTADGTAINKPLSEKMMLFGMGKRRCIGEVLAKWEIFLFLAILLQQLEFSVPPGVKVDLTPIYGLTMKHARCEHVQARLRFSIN", "experiment": "P450 enzyme inhibition, CYP1A2", "type": "in vitro ADME", "settings": "human liver microsomes", "protocol": "Eight cytochrome p450 enzyme inhibition reactions of human liver microsomes were performed using compound 77 of the present invention as a representative example.\nThe main reaction systems and processes: in 37° C. water bath, the test compounds (7 concentrations, 0, 0.25, 0.5, 5, 10, 25, and 50 uM; the final methanol concentration was 1% in the system), human liver microsomes (BD Gentest) (0.5 mg/mL) and reducing coenzyme II (Roche 10621706001) (1 mg/mL) and the corresponding cytochrome p450 enzyme probe substrate were co-incubated for 5 to 20 minutes. Among them, (1) the probe substrate for CYP1A2 was Phenacetin ([…]) (Sigma), and the selective inhibitor alpha-naphthoflavone (2 uM) (Sigma) was for parallel detection as positive control, and they were incubated for 20 minutes. (2) The probe substrate for CYP2b6 was Bupropion (40 uM) (Sigma) and the selective inhibitor Ticlopidine (10 uM) (Sigma) was for parallel detection as positive control, and they were incubated for 20 minutes. (3) The probe substrate of CYP2C8 was Amodiaquine (1 uM) (Sigma), and the selective inhibitor Montelukast (10 uM) (Sigma) was for parallel detection as positive control, and they were incubated for 20 minutes. (4) The probe substrate for CYP2C9 was Diclofenac (2.5 uM) (Sigma), and the selective inhibitor Sulphaphenazole (10 uM) (Sigma) was for parallel detection as positive control, and they were incubated for 20 minutes. (5) The probe substrate for CYP2C19 was Mephenytoin (40 uM) (Sigma), and the selective inhibitor Ticlopidine (10 uM) (Sigma) was for parallel detection as positive control, and they were incubated for 20 minutes. (6) The probe substrate for CYP2D6 was Dextromethorphan (5 uM) (Sigma), and the selective inhibitor Quinidine (10 uM) (Sigma) was for parallel detection as positive control, and they were incubated for 20 minutes. (7) The probe substrates for CYP3A4-T and CYP3A4-M were Testosterone (5 uM) (Sigma) and Midazolam (5 uM) (Sigma), respectively, and the selective inhibitor was Ketoconazole (1 uM) (Sigma), they were detected in parallel as positive control, and incubated for 5 minutes. The reaction system was quenched by adding methanol containing the corresponding internal standard. The internal standard compound was Tolbutamide (Sigma). The concentration of the corresponding metabolites was determined by LC/MS/MS. For the data analysis, the decrease in peak area of the metabolite of the sample after addition of compound 77 relative to the peak area of the metabolite of the solvent control sample was used to calculate the IC50 (concentration of the test substance at 50% inhibition). The percentages of peak areas of metabolites of CYP1A2, CYP2B6, CYP2C8, CYP2C9, 15CYP2C19, CYP2D6, CYP3A4-T, and CYP3A4-M probe substrates after addition of different concentrations of compound 77 and selective inhibitors relative to the solvent control peak areas were shown in the Table 7."}, "[1]": {"experiment": "Metabolic stability in rat liver microsomes", "type": "in vitro ADME", "settings": "rat liver microsome", "protocol": "The experiment on the compound stability in rat liver microsomes was performed using compound 77 of the present invention as a representative example.\nProcedure: The mixed reaction solution containing reducing coenzyme II (1 mg/ml, Roche 10621706001), rat liver microsomes (0.5 mg/ml, BD Gentest), phosphate buffer (0.1M) and ionized water was prepared according to a certain ratio, and then the reaction solution was placed in a 37° C. water bath and preheated for 2 minutes. A certain amount of compound 77 or reference substance was added to the prepared mixed reaction solution to start the reaction. In the final reaction system, the concentration of compound 77 or the positive control midazolam (National Institutes for Food and Drug Control) was 2 uM, and water was used instead of reducing coenzyme II as a negative control. […] The ratio of mean peak area of compound 77 to the mean peak area of internal standard at each time point was calculated, and the percentage of this ratio to that at time point 0 was calculated, and then change in this percentage was used to indicate the metabolic stability of the compound 77. […]"}}}
{"smiles": "COCCOc1ccc2c(c1)ncn2-c1ccc(NC(=O)Nc2cc(C(C)(C)C)n[nH]2)cc1", "note": "[Compound 77, 1-(5-tert-butyl-2H-pyrazol-3-yl)-3-{4-[5-(2-methoxyl-ethoxyl)-benzimidazol-1-yl]-phenyl}-urea]", "values": [{"measurement": "CYP1A2 Remaining %", "setting": "CYP1A2; Concentration 0.25 uM", "value": 95.7, "unit": "%"}, {"measurement": "CYP1A2 Remaining %", "setting": "CYP1A2; Concentration 0.5 uM", "value": 99.8, "unit": "%"}, {"measurement": "CYP1A2 Remaining %", "setting": "CYP1A2; Concentration 5 uM", "value": 94.1, "unit": "%"}, {"measurement": "CYP1A2 Remaining %", "setting": "CYP1A2; Concentration 10 uM", "value": 92.1, "unit": "%"}, {"measurement": "CYP1A2 Remaining %", "setting": "CYP1A2; Concentration 25 uM", "value": 80.9, "unit": "%"}, {"measurement": "CYP1A2 Remaining %", "setting": "CYP1A2; Concentration 50 uM", "value": 63.4, "unit": "%"}, {"measurement": "IC50", "setting": "CYP1A2; read-out: half-inhibitory concentration (IC50) of CYP1A2", "value": "> 50", "unit": "µM"}, {"measurement": "elimination rate constant", "setting": "[1]; 2 uM", "value": 0.0031}, {"measurement": "half-life at 2 uM", "setting": "[1]; rat liver microsomes", "value": 224, "unit": "min"}]}
